The text below walks through data of patent US8198273B2, “Compounds and methods for kinase modulation, and indications therefor” (Plexxikon Inc., priority 2009, dated 2012).

For orientation: IC50 means the concentration at which inhibition is half-maximal.

The structures appear in SMILES notation.

One data set concerns the target B-Raf V600E (Homo sapiens, UniProt P15056, V600E). The experiment in a line: B-Raf V600E biochemical kinase inhibition (AlphaScreen, biotin-MEK1 substrate). Particulars: 100 μM ATP. The gist of the method: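 IC50 derived from AlphaScreen signal plotted against compound concentration. Final ATP 100 μM; 3 h incubation at room temperature. Eight-point 3-fold dilution series prepared from a 0.1 mM DMSO stock.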
On the technique in general: Bead proximity is the source of the signal in Alpha formats.

The subject of data set [1] is A375 melanoma cells (B-Raf V600E). Put plainly: A375 cell growth inhibition (ATPlite). It is filed as cell-based. Particulars: Homo sapiens, A-375, 72 h; A375, 3 days incubation. The gist of the method: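 Cells plated overnight, then exposed 3 days at 37° C to 8-point 1:3 compound dilutions topping at 10 μM final. Viability read as ATPlite luminescence, proportional to cell number; IC50 from luminescence versus concentration.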
A general note: In ATP-based viability assays light output follows the ATP content of the culture.

The target in the next data set is T1, CYP1A2 (Homo sapiens, UniProt P05177).
T1 sequence (P05177 1-516): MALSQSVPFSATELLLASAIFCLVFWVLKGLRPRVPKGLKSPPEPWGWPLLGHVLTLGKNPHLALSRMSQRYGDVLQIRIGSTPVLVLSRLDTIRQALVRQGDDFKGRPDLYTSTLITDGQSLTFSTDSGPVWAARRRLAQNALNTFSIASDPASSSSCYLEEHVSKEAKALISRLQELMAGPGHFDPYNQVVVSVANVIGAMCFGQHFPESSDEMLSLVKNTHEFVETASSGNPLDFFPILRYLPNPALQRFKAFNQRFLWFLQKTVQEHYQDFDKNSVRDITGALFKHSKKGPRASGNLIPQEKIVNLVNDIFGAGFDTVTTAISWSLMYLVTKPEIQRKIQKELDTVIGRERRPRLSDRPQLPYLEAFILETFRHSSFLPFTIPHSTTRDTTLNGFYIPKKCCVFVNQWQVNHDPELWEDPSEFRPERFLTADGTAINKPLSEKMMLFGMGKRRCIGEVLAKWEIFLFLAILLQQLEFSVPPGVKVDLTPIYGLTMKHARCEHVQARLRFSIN
Put plainly: CYP1A2 inhibition (fluorescent substrate). The format is in vitro ADME. Particulars: CYP1A2, CEC substrate; read-out: Cyp IC50 1A2. Here is the method:
CYP (Cytochrome P450) enzymes are the major drug metabolizing enzymes present in the liver. The inhibition of CYP enzyme activity (IC50) for each of CYP1A2, CYP2C19, CYP2C9, CYP2D6, CYP3A4(BFC) and CYP3A4(BQ) is determined for compounds, where inhibition of metabolism of a known substrate leads to a decrease in the fluorescence of the metabolized product. The fluorescence of the product is monitored as a function of compound concentration.
Compounds are dissolved in dimethyl sulfoxide to a concentration of 100 mM. These are diluted 1 μL into 82 μL of acetonitrile. […] These are then serially diluted 1:1 (160 μL to 160 μL co-factor mix) for a total of 10 points. A 10 μL aliquot of this final mixture is dispensed into 384 well assay plates and incubated for 10 minutes at 37° C. […] Assay plates are incubated at 37° C. […] The signal versus compound concentration is used to determine the IC50. The enzymes and substrates for this assay are obtained from BD Biosciences.

Sequence of B-Raf V600E (P15056 whole entry V600E): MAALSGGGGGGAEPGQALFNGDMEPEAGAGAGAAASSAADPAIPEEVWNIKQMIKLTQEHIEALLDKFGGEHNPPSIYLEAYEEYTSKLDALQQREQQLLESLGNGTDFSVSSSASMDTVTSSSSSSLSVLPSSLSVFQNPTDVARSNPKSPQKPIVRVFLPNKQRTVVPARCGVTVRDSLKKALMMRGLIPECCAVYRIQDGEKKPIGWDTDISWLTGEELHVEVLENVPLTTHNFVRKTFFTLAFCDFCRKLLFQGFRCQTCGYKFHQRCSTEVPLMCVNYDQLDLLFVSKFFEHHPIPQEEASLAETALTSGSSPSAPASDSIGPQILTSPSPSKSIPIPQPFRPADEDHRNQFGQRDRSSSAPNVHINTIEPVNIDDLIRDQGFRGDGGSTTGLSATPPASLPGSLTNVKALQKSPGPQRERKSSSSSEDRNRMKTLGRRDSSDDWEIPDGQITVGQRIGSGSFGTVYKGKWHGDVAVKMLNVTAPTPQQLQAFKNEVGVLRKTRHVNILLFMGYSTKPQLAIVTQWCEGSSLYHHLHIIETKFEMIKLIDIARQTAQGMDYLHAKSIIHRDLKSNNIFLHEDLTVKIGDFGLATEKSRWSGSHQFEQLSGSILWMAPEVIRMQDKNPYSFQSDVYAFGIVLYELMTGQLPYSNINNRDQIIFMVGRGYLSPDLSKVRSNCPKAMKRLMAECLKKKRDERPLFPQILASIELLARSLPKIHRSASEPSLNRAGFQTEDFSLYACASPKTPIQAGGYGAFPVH

Turning to `CCCS(=O)(=O)Nc1ccc(F)c(C(=O)c2c[nH]c3ncc(-c4ccc(N5CCCC5)nc4)cc23)c1F` [P-2231, Propane-1-sulfonic acid {2,4-difluoro-3-[5-(6-pyrrolidin-1-yl-pyridin-3-yl)-1H-pyrrolo[2,3-b]pyridine-3-carbonyl]-phenyl}-amide], the IC50 was less than 10 nM on B-Raf V600E, less than 100 nM in data set [1] and less than 5000 nM on CYP1A2.

`Cc1cnc2[nH]cc(C(=O)c3c(F)ccc(NS(=O)(=O)c4cccc(F)c4)c3F)c2c1` [P-2016, N-[2,4-Difluoro-3-(5-methyl-1H-pyrrolo[2,3-b]pyridine-3-carbonyl)-phenyl]-3-fluoro-benzenesulfonamide]: the IC50 is less than 10 nM against B-Raf V600E, less than 1000 nM in data set [1] and greater than 10000 nM on CYP1A2.

Regarding `CCCS(=O)(=O)Nc1ccc(F)c(C(=O)c2c[nH]c3ncc(-c4ccc(C(=O)NC)nc4)cc23)c1F` [P-2180, 5-{3-[2,6-Difluoro-3-(propane-1-sulfonylamino)-benzoyl]-1H-pyrrolo[2,3-b]pyridin-5-yl}-pyridine-2-carboxylic acid methylamide], the 50% inhibitory concentration (IC50) against B-Raf V600E is less than 10 nM; in data set [1], less than 1000 nM; at CYP1A2 it was greater than 10000 nM.

On to `CCCS(=O)(=O)Nc1cccc(C(=O)c2c[nH]c3ncc(-c4cnc(N(C)C)nc4)cc23)c1F` [P-2408, Propane-1-sulfonic acid {3-[5-(2-dimethylamino-pyrimidin-5-yl)-1H-pyrrolo[2,3-b]pyridine-3-carbonyl]-2-fluoro-phenyl}-amide], for which the concentration for half-maximal inhibition (IC50) against B-Raf V600E is less than 10 nM; in data set [1], less than 100 nM; at CYP1A2, greater than 10000 nM.

For `CCCS(=O)(=O)Nc1ccc(F)c(C(=O)c2c[nH]c3ncc(-c4ccc(OCCN5CCOCC5)nc4)cc23)c1F` [P-2232, Propane-1-sulfonic acid (2,4-difluoro-3-{5-[6-(2-morpholin-4-yl-ethoxy)-pyridin-3-yl]-1H-pyrrolo[2,3-b]pyridine-3-carbonyl}-phenyl)-amide], the IC50 at B-Raf V600E was less than 10 nM; in data set [1], less than 100 nM; at CYP1A2, greater than 10000 nM.

In the case of `CCCS(=O)(=O)Nc1ccc(F)c(C(=O)c2c[nH]c3ncc(-c4cccc(S(C)(=O)=O)c4)cc23)c1F` [P-2228, Propane-1-sulfonic acid {2,4-difluoro-3-[5-(3-methanesulfonyl-phenyl)-1H-pyrrolo[2,3-b]pyridine-3-carbonyl]-phenyl}-amide], the 50% inhibitory concentration (IC50) on B-Raf V600E is less than 10 nM; in data set [1], less than 1000 nM; at CYP1A2 it was greater than 10000 nM.

As to `COc1ncc(-c2cnc3[nH]cc(C(=O)c4c(F)ccc(NS(=O)(=O)c5cccc(F)c5)c4F)c3c2)cn1` [P-2045, N-{2,4-Difluoro-3-[5-(2-methoxy-pyrimidin-5-yl)-1H-pyrrolo[2,3-b]pyridine-3-carbonyl]-phenyl}-3-fluoro-benzenesulfonamide], the half-maximal inhibitory concentration (IC50) against B-Raf V600E was less than 100 nM; in data set [1], less than 5000 nM; at CYP1A2 it was greater than 10000 nM.

Consider `O=C(c1c(F)ccc(NS(=O)(=O)c2ccccc2F)c1F)c1c[nH]c2nccc(Cl)c12` [P-2017, N-[3-(4-Chloro-1H-pyrrolo[2,3-b]pyridine-3-carbonyl)-2,4-difluoro-phenyl]-2-fluoro-benzenesulfonamide], for which the IC50 at B-Raf V600E is less than 10 nM; in data set [1], less than 1000 nM; at CYP1A2, greater than 10000 nM.

As for `N#Cc1ccnc2[nH]cc(C(=O)c3c(F)ccc(NS(=O)(=O)c4cccnc4)c3F)c12` [P-2077, Pyridine-3-sulfonic acid [3-(4-cyano-1H-pyrrolo[2,3-b]pyridine-3-carbonyl)-2,4-difluoro-phenyl]-amide], the figures for the IC50 (at B-Raf V600E; in data set [1]; on CYP1A2) were less than 10 nM, less than 10000 nM and greater than 10000 nM, respectively.

For `CCCS(=O)(=O)Nc1ccc(F)c(C(=O)c2c[nH]c3ncc(-c4cnc(C)nc4)cc23)c1F` [P-2211, Propane-1-sulfonic acid {2,4-difluoro-3-[5-(2-methyl-pyrimidin-5-yl)-1H-pyrrolo[2,3-b]pyridine-3-carbonyl]-phenyl}-amide], the concentration for half-maximal inhibition (IC50) at B-Raf V600E was less than 10 nM; in data set [1] it was less than 1000 nM; at CYP1A2, greater than 10000 nM.

As for `COc1ccnc2[nH]cc(C(=O)c3c(F)ccc(NS(=O)(=O)c4cccc(F)c4)c3F)c12` [P-2023, N-[2,4-Difluoro-3-(4-methoxy-1H-pyrrolo[2,3-b]pyridine-3-carbonyl)-phenyl]-3-fluoro-benzenesulfonamide], the IC50 is less than 10 nM against B-Raf V600E, less than 1000 nM in data set [1] and greater than 10000 nM on CYP1A2.

On to `CCCS(=O)(=O)Nc1ccc(F)c(C(=O)c2c[nH]c3ncc(-c4cnc(N(C)C)nc4)cc23)c1F` [P-2196, Propane-1-sulfonic acid {3-[5-(2-dimethylamino-pyrimidin-5-yl)-1H-pyrrolo[2,3-b]pyridine-3-carbonyl]-2,4-difluoro-phenyl}-amide], for which the IC50 was less than 10 nM on B-Raf V600E, less than 1000 nM in data set [1] and greater than 10000 nM on CYP1A2.

For the compound `CCCS(=O)(=O)Nc1ccc(F)c(C(=O)c2c[nH]c3ncc(-c4ccc(Cl)nc4)cc23)c1F` [P-2154, Propane-1-sulfonic acid {3-[5-(6-chloro-pyridin-3-yl)-1H-pyrrolo[2,3-b]pyridine-3-carbonyl]-2,4-difluoro-phenyl}-amide], the IC50 on B-Raf V600E is less than 100 nM; in data set [1] it was less than 1000 nM; on CYP1A2, greater than 10000 nM.

Regarding `C#Cc1cnc2[nH]cc(C(=O)c3c(F)ccc(NS(=O)(=O)CCC)c3F)c2c1` [P-2260, Propane-1-sulfonic acid [3-(5-ethynyl-1H-pyrrolo[2,3-b]pyridine-3-carbonyl)-2,4-difluoro-phenyl]-amide], the half-maximal inhibitory concentration (IC50) is less than 10 nM against B-Raf V600E, less than 1000 nM in data set [1] and greater than 10000 nM on CYP1A2.

In the case of `N#Cc1cnc2[nH]cc(C(=O)c3cccc(NS(=O)(=O)c4cc(F)ccc4F)c3F)c2c1` [P-2052, N-[3-(5-Cyano-1H-pyrrolo[2,3-b]pyridine-3-carbonyl)-2-fluoro-phenyl]-2,5-difluoro-benzenesulfonamide], the figures for the 50% inhibitory concentration (IC50) (on B-Raf V600E; in data set [1]; at CYP1A2) were less than 10 nM, less than 1000 nM and greater than 10000 nM, respectively.

Take `O=C(c1c(F)ccc(NS(=O)(=O)c2cc(F)ccc2F)c1F)c1c[nH]c2nccc(Cl)c12` [P-2018, N-[3-(4-Chloro-1H-pyrrolo[2,3-b]pyridine-3-carbonyl)-2,4-difluoro-phenyl]-2,5-difluoro-benzenesulfonamide]: the IC50 at B-Raf V600E is less than 10 nM; in data set [1] it was less than 1000 nM; at CYP1A2 it was greater than 10000 nM.

As for `CCCS(=O)(=O)Nc1ccc(F)c(C(=O)c2c[nH]c3ncc(-c4cncnc4)cc23)c1F` [P-2162, Propane-1-sulfonic acid [2,4-difluoro-3-(5-pyrimidin-5-yl-1H-pyrrolo[2,3-b]pyridine-3-carbonyl)-phenyl]-amide], the IC50 at B-Raf V600E was less than 10 nM; in data set [1] it was less than 1000 nM; on CYP1A2, less than 5000 nM.

For `CCCS(=O)(=O)Nc1ccc(F)c(C(=O)c2c[nH]c3ncc(-c4ccc(OCCCN5CCOCC5)nc4)cc23)c1F` [P-2236, Propane-1-sulfonic acid (2,4-difluoro-3-{5-[6-(3-morpholin-4-yl-propoxy)-pyridin-3-yl]-1H-pyrrolo[2,3-b]pyridine-3-carbonyl}-phenyl)-amide], the results for the IC50 (against B-Raf V600E; in data set [1]; on CYP1A2) were less than 10 nM, less than 100 nM and greater than 10000 nM, respectively.

As to `CCCS(=O)(=O)Nc1ccc(F)c(C(=O)c2c[nH]c3ncc(-c4cncc(S(C)(=O)=O)c4)cc23)c1F` [P-2188, Propane-1-sulfonic acid {2,4-difluoro-3-[5-(5-methanesulfonyl-pyridin-3-yl)-1H-pyrrolo[2,3-b]pyridine-3-carbonyl]-phenyl}-amide], the results for the IC50 (against B-Raf V600E; in data set [1]; at CYP1A2) were less than 10 nM, less than 10000 nM and greater than 10000 nM, respectively.

As for `COc1ccnc2[nH]cc(C(=O)c3c(F)ccc(NS(=O)(=O)c4cc(F)ccc4F)c3F)c12` [P-2022, N-[2,4-Difluoro-3-(4-methoxy-1H-pyrrolo[2,3-b]pyridine-3-carbonyl)-phenyl]-2,5-difluoro-benzenesulfonamide], the IC50 is less than 10 nM on B-Raf V600E, less than 5000 nM in data set [1] and greater than 10000 nM at CYP1A2.
